Consider 12 compounds from patent US20260108527A1, “POLO LIKE KINASE 4 INHIBITORS” (ORIC Pharmaceuticals, Inc., priority 2022, published 2026).

pIC50: −log10 of the molar value.

The target in one test is T1, human recombinant PLK4 (Homo sapiens, UniProt O00444).
T1 construct: purchased ThermoFisher PV6396
T1 sequence (O00444 1-970): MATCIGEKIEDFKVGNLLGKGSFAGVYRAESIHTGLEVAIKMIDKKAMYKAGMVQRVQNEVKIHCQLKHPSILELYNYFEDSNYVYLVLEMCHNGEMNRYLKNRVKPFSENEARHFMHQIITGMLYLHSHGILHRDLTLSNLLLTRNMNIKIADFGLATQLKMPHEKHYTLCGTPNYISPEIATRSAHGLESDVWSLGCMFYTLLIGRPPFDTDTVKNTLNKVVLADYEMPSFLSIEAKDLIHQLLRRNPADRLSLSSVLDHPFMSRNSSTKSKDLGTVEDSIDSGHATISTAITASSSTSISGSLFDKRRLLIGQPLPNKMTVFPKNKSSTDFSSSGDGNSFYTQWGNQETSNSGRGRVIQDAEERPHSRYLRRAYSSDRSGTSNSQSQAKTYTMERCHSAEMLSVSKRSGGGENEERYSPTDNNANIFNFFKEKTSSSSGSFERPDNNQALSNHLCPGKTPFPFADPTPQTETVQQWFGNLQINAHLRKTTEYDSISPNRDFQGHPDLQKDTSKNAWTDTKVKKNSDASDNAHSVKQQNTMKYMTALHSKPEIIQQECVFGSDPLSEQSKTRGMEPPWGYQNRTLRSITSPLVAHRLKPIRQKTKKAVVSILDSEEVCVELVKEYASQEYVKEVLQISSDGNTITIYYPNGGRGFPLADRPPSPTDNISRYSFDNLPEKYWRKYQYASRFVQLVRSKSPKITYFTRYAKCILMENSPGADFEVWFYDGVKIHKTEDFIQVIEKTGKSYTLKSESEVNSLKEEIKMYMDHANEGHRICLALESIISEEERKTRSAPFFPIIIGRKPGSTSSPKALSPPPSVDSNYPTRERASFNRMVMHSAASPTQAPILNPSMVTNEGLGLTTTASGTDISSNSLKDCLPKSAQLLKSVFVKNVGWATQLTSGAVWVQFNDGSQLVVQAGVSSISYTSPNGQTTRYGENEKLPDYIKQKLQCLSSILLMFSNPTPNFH
The experiment in a line: PLK4 Biochemical Assay (ADP-Glo). The settings on record: 0.5 nM PLK4, 8.0 μM ATP, 4.7 μM MBP, 6 hours at RT. The protocol:
Activity of human recombinant PLK4 (ThermoFisher, cat #PV6396) was measured by quantification of adenosine diphosphate (ADP) using the ADP-Glo Kinase Assay Kit (Promega, cat #V9102). […] 5 μL of 1.0 nM PLK4 protein in assay buffer (50 mM HEPES, pH 7.5, 0.01% Brij-35, 0.01% BSA, 10 mM MgCl2, 1 mM EGTA, 1 mM DTT) was added to the plates. Test compounds and PLK4 were incubated for 15 minutes at room temperature (RT). […] Reactions were stopped and the remaining ATP depleted by adding 10 μL of ADP-Glo reagent (Promega, cat #V912B) and incubating for 40 minutes at RT. The simultaneous conversion of the remaining ADP to ATP and measurement of the newly synthesized ATP was achieved by addition of 20 μL Kinase Detection reagent (Promega, cat #V914B), incubation for 30 min at RT, and luminescence detection using the EnVision plate reader (PerkinElmer). […] The IC50 values reported in Table 2 were determined using four parameter non-linear regression curve fit.

In the next test the test system is CHP134. The experiment in a line: CHP134 CellTiter-Glo (CTG) Assay. It counts as cell-based. As to conditions: Homo sapiens, CHP-134, 120 h; viable cells by CellTiter-Glo after 5 days. On the procedure:
[…] cells (DSMZ-German Collection of Microorganisms and Cell Cultures, Braunschweig Germany) were cultured in RPMI 1640 supplemented with 10% fetal bovine serum, penicillin (100 U/ml), 1% L-Glutamine and streptomycin ([…]). Cells were seeded (200 cells/well) in 384-well plates for 16 hours. On day two, nine serial 1:3 compound dilutions were made in DMSO in a 96-well plate. The compounds were then further diluted into growth media using a BRAVO robot (Agilent, Santa Clara, CA). The diluted compounds were then added to quadruplicate wells in the 384-well cell plate and incubated at 37° C. and 5% CO2. After 5 days, relative numbers of viable cells were measured by luminescence using CellTiter-Glo® (Promega) according to the manufacturer's instructions and read on a SPARK Multimode Microplate Reader (Tecan, Mannedorf Switzerland). The IC50 calculations for the values reported in Table 2 were carried out using Prism 6.0 software (GraphPad, San Diego).

The target in test [1] is T2, human recombinant Aurora B (Homo sapiens, UniProt Q96GD4).
T2 construct: purchased ThermoFisher PR9210B
T2 sequence (Q96GD4 whole entry): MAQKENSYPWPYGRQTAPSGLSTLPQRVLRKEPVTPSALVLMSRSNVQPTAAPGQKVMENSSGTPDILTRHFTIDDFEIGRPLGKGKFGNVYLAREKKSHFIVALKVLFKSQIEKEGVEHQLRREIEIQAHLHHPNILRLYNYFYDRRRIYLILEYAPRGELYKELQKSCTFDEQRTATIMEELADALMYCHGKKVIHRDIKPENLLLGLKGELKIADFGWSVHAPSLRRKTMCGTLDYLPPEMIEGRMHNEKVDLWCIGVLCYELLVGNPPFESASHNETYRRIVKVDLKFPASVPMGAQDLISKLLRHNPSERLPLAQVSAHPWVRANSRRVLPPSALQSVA
The experiment in a line: Aurora B Kinase Biochemical Assay (ADP-Glo). As to conditions: selectivity ratio; Aurora B 10 nM, 114 μM ATP. The protocol: Activity of human recombinant Aurora B (ThermoFisher, cat #PR9210B) was measured by quantification of adenosine diphosphate (ADP) using the ADP-Glo Kinase Assay Kit (Promega, cat #V9102). Test compounds were solubilized in dimethyl sulfoxide (DMSO) and dispensed into 384-well white polystyrene nonbinding plates (Greiner, cat #781094) using the Echo acoustic dispenser (Labcyte Inc.) in a 11-point 3-fold titration in duplicates. 5 μL of 20 nM Aurora B in assay buffer (50 mM HEPES, pH 7.5, 0.01% Brij-35, 0.01% BSA, 10 mM MgCl2, 1 mM EGTA, 1 mM DTT) was added to the plates. Test compounds and Aurora B were incubated for 15 minutes at room temperature (RT). Then 5 μL of a 228 μM adenosine triphosphate (ATP) (Promega, cat #V915B) and 9.3 μM Myelin Basic Protein (MBP) (SignalChem, cat #M42-51N) substrate solution in assay buffer was added and the reaction mixture was incubated for 2 hours at RT. The final concentration of Aurora b, ATP and MBP in the reactions were 10 nM, 114 μM and 4.7 μM, respectively. Reactions were stopped and the remaining ATP depleted by adding 10 μL of ADP-Glo reagent (Promega, cat #V912B) and incubating for 40 minutes at RT. The simultaneous conversion of the remaining ADP to ATP and measurement of the newly synthesized ATP was achieved by addition of 20 μL Kinase Detection reagent (Promega, cat #V9141B), incubation for 30 min at RT, and luminescence detection using the EnVision plate reader (PerkinElmer). Reactions lacking Aurora B were used as […]. Reactions containing DMSO alone were used as […]. The IC50 values reported in Table 2 were determined using four parameter non-linear regression curve fit.
Background: ADP-Glo turns the ADP formed in a reaction into a luminescent signal.

On to `COc1ccc2c(c1)[C@]1(C[C@H]1c1ccc3c(Nc4cc(-c5ncco5)ccc4OC)n[nH]c3c1)C(=O)N2` [Example 13, (1R,2S)-5′-methoxy-2-{3-[2-methoxy-5-(1,3-oxazol-2-yl)anilino]-1H-indazol-6-yl}spiro[cyclopropane-1,3′-indol]-2′(1′H)-one], for which the pIC50 on human recombinant PLK4 is 9.19; in the test with CHP134, 6.46. In test [1], the “[Aurora B IC50 (nM)]/[PLK4 IC50 (nM)]” value came out at 1120.7692.

Turning to `CCOc1cnc(C#CC(C)(C)O)nc1Nc1n[nH]c2cc([C@@H]3C[C@@]34C(=O)Nc3ccc(OC)cc34)ccc12` [Example 45, (1R,2S)-2-(3-((5-ethoxy-2-(3-hydroxy-3-methylbut-1-yn-1-yl)pyrimidin-4-yl)amino)-1H-indazol-6-yl)-5′-methoxyspiro[cyclopropane-1,3′-indolin]-2′-one], the figures for the pIC50 on human recombinant PLK4 and with CHP134 were 9.86 and 6.05, respectively. The “[Aurora B IC50 (nM)]/[PLK4 IC50 (nM)]” value in test [1] is listed as 8798.5611.

In the case of `COc1ccc2c(c1)[C@]1(C[C@H]1c1ccc3c(Nc4nc(-c5cnn(C)c5)ncc4OC)n[nH]c3c1)C(=O)N2` [Example 31, (1R,2S)-5′-methoxy-2-(3-{[5-methoxy-2-(1-methyl-1H-pyrazol-4-yl)pyrimidin-4-yl]amino}-1H-indazol-6-yl)spiro[cyclopropane-1,3′-indol]-2′(1′H)-one], the negative logarithm of the IC50 (pIC50) was 9.59 at human recombinant PLK4 and 6.87 in the test with CHP134. The “[Aurora B IC50 (nM)]/[PLK4 IC50 (nM)]” value in test [1] worked out at 429.3981.

Take `COc1ccc2c(c1)[C@]1(C[C@H]1c1ccc3c(Nc4cc(-c5cnn(C)c5)ncc4OC)n[nH]c3c1)C(=O)N2` [Example 27, (1R,2S)-5′-methoxy-2-(3-{[5-methoxy-2-(1-methyl-1H-pyrazol-4-yl)pyridin-4-yl]amino}-1H-indazol-6-yl)spiro[cyclopropane-1,3′-indol]-2′(1′H)-one]: the pIC50 was 8.98 on human recombinant PLK4 and 6.33 with CHP134. Besides, in test [1], the “[Aurora B IC50 (nM)]/[PLK4 IC50 (nM)]” value is on record as 954.5884.

With `CCOc1ccc(-c2nccs2)cc1Nc1n[nH]c2cc([C@@H]3C[C@@]34C(=O)Nc3ccc(OC)cc34)ccc12` [Example 33, (1R,2S)-2-{3-[2-ethoxy-5-(1,3-thiazol-2-yl)anilino]-1H-indazol-6-yl}-5′-methoxyspiro[cyclopropane-1,3′-indol]-2′(1′H)-one], the pIC50 on human recombinant PLK4 is 9.12; with CHP134, 7.38. Besides, the “[Aurora B IC50 (nM)]/[PLK4 IC50 (nM)]” value in test [1] is 45644.0903.

For the compound `COc1ccc2c(c1)[C@]1(C[C@H]1c1ccc3c(Nc4cc5c(cc4OC)S(=O)(=O)C=C5)n[nH]c3c1)C(=O)N2` [Example 6, 6-methoxy-5-({6-[(1R,2S)-5′-methoxy-2′-oxo-1′,2′-dihydrospiro[cyclopropane-1,3′-indol]-2-yl]-1H-indazol-3-yl}amino)-1H-1-benzothiophene-1,1-dione], the negative-log IC50 (pIC50) was 9.02 at human recombinant PLK4 and 7.40 with CHP134. For the same compound, the “[Aurora B IC50 (nM)]/[PLK4 IC50 (nM)]” value in test [1] is reported as 427.6412.

Take `COc1ccc2c(c1)[C@]1(C[C@H]1c1ccc3c(Nc4cc(-c5ccsn5)ccc4OC)n[nH]c3c1)C(=O)N2` [Example 30, (1R,2S)-5′-methoxy-2-{3-[2-methoxy-5-(1,2-thiazol-3-yl)anilino]-1H-indazol-6-yl}spiro[cyclopropane-1,3′-indol]-2′(1′H)-one]: the results for the pIC50 on human recombinant PLK4 and in the test with CHP134 were 9.16 and 7.01, respectively. Moreover, the “[Aurora B IC50 (nM)]/[PLK4 IC50 (nM)]” value in test [1] is reported as 1970.3298.

As for `CCOc1ccc(-c2cnn(C)c2)cc1Nc1n[nH]c2cc([C@@H]3C[C@@]34C(=O)Nc3ccc(OC)cc34)ccc12` [Example 37, (1R,2S)-2-{3-[2-ethoxy-5-(1-methyl-1H-pyrazol-4-yl)anilino]-1H-indazol-6-yl}-5′-methoxyspiro[cyclopropane-1,3′-indol]-2′(1′H)-one], the negative logarithm of the IC50 (pIC50) on human recombinant PLK4 is 8.75; with CHP134 it was 6.35. In addition, in test [1], the “[Aurora B IC50 (nM)]/[PLK4 IC50 (nM)]” value is 27839.6436.

Turning to `CCOc1cc2ccccc2nc1Nc1n[nH]c2cc([C@@H]3C[C@@]34C(=O)Nc3ccc(OC)cc34)ccc12` [Example 8, (1R,2S)-2-{3-[(3-ethoxyquinolin-2-yl)amino]-1H-indazol-6-yl}-5′-methoxyspiro[cyclopropane-1,3′-indol]-2′(1′H)-one], the values for the pIC50 at human recombinant PLK4 and in the test on CHP134 were 8.74 and 6.31, respectively. The “[Aurora B IC50 (nM)]/[PLK4 IC50 (nM)]” value in test [1] worked out at 1829.1347.

In the case of `COc1ccc2c(c1)[C@]1(C[C@H]1c1ccc3c(Nc4nc(N(C)C)ncc4OC)n[nH]c3c1)C(=O)N2` [Example 20, (1R,2S)-2-(3-{[2-(dimethylamino)-5-methoxypyrimidin-4-yl]amino}-1H-indazol-6-yl)-5′-methoxyspiro[cyclopropane-1,3′-indol]-2′(1′H)-one], the pIC50 at human recombinant PLK4 was 8.55; with CHP134, 6.36. The “[Aurora B IC50 (nM)]/[PLK4 IC50 (nM)]” value in test [1] amounted to 120.

As to `CCOc1ccc(-c2nccs2)nc1Nc1n[nH]c2cc([C@@H]3C[C@@]34C(=O)Nc3ccc(OC)cc34)ccc12` [Example 28, (1R,2S)-2-(3-{[3-ethoxy-6-(1,3-thiazol-2-yl)pyridin-2-yl]amino}-1H-indazol-6-yl)-5′-methoxyspiro[cyclopropane-1,3′-indol]-2′(1′H)-one], the negative logarithm of the IC50 (pIC50) on human recombinant PLK4 was 9.47; in the test with CHP134, 7.78. For the same compound, the “[Aurora B IC50 (nM)]/[PLK4 IC50 (nM)]” value in test [1] is 1526.5629.

`COc1ccc2c(c1)[C@]1(C[C@H]1c1ccc3c(Nc4nc(-c5cnn(C)c5)cnc4OC)n[nH]c3c1)C(=O)N2` [Example 24, (1R,2S)-5′-methoxy-2-(3-{[3-methoxy-6-(1-methyl-1H-pyrazol-4-yl)pyrazin-2-yl]amino}-1H-indazol-6-yl)spiro[cyclopropane-1,3′-indol]-2′(1′H)-one]: the values for the pIC50 on human recombinant PLK4 and with CHP134 were 9.39 and 7.30, respectively. Besides, the “[Aurora B IC50 (nM)]/[PLK4 IC50 (nM)]” value in test [1] was determined as 263.2352.

For orientation: pIC50 means the negative decadic logarithm of the IC50, by convention in mol/L.
